Calls of active or inactive are those of the source. The calls are words filed in the database; no cut-off is given here.
Legend:
[1] = target: T1, Protein cereblon/Androgen receptor (Homo sapiens) (UniProt P10275+Q96SW2); assay: PROTAC activity at CRBN/AR in human LNCaP cells assessed as induction of AR degradation by measuring downregulation of AR protein expression measured after 24 hrs by western blot assay; assay type: cell-based; conditions: dose 10-30 µM
[2] = target: T1, Protein cereblon/Androgen receptor (Homo sapiens); assay: PROTAC activity at CRBN/AR in human LNCaP cells assessed as induction of AR degradation by measuring downregulation of AR protein expression at 30 uM measured after 24 hrs by western blot assay; assay type: cell-based
[3] = Drug uptake in AR-positive human LNCaP cells assessed as increase in fluorescence intensity at 10 uM incubated for 24 hrs by DAPI staining based confocal laser scanning microscopy; assay type: ADME
[4] = Drug uptake in AR-negative human PC-3 cells assessed as increase in fluorescence intensity at 10 uM incubated for 24 hrs by DAPI staining based confocal laser scanning microscopy; assay type: ADME, cell-based; conditions: pc-3, 24 h

T1 sequence (P10275 whole entry, looked up): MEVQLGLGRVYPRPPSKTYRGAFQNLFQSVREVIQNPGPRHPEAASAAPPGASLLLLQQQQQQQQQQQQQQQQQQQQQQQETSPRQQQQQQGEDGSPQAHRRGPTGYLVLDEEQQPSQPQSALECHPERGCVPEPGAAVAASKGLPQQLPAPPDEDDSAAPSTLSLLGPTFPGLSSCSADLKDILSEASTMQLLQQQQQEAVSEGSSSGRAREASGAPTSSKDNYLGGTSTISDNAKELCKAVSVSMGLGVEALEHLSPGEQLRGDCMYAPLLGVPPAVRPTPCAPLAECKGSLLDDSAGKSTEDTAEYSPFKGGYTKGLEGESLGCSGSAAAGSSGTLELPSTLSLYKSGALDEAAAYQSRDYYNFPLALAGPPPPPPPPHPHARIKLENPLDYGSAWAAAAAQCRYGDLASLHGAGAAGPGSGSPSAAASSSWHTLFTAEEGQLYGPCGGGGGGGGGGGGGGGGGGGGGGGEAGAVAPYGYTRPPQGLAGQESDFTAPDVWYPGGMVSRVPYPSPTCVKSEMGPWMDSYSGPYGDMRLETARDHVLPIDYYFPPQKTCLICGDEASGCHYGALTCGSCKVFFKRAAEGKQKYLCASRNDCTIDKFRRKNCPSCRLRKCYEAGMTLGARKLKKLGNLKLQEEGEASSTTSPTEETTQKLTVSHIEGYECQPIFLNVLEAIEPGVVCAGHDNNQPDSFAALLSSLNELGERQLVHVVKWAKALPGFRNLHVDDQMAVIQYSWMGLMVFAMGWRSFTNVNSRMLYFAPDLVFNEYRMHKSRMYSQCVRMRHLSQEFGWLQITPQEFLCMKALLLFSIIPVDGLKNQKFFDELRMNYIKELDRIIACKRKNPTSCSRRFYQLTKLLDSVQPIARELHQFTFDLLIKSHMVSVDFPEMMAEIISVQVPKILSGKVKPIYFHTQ
T1 sequence (Q96SW2 whole entry, looked up): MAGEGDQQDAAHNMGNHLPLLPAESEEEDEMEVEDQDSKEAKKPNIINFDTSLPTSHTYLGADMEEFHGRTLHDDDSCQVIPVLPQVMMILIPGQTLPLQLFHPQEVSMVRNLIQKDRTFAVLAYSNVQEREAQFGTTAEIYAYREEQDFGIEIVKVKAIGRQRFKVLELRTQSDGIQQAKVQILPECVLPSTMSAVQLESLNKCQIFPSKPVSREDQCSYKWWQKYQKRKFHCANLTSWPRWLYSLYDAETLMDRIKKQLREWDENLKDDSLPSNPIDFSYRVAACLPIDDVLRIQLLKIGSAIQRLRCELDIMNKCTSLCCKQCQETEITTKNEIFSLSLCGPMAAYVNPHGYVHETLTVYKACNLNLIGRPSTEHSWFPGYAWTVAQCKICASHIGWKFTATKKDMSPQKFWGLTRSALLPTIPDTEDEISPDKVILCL

Row | Structure (SMILES) | Activity [1] | Activity [2] | Drug uptake [3] | Drug uptake [4]
1 | CC1(C)C(=O)N(c2ccc(C#N)c(C(F)(F)F)c2)C(=S)N1CCCn1cc(COCCOCCOc2cccc3c2C(=O)N(C2CCC(=O)NC2=O)C3=O)nn1 (centres undefined) | Dose-Dependent Effect | Active | – | –
2 | Nc1cccc2c1C(=O)N(C1CCC(=O)NC1=O)C2=O (centres undefined) [POMALIDOMIDE] | – | – | Active | Active

— ChEMBL document CHEMBL4834485, “Designed, synthesized and biological evaluation of proteolysis targeting chimeras (PROTACs) as AR degraders for prostate cancer treatment” (Bioorg Med Chem, 2021)
